Measured values reported in patent US5709901A (priority 1994, dated 1998).
“Also recorded” adds a separate entry of the source. Square brackets hold non-standard residues; d marks the D form. Peptide text beside a SMILES is read from it. * marks the point of attachment. Sta = CC(C)C[C@H](N)[C@@H](O)CC(=O)O; Isovaleryl = CC(C)CC(=O)*

B1: papain (protein, UniProt P00784 134-345, looked up)
Papain: IPEYVDWRQKGAVTPVKNQGSCGSCWAFSAVVTIEGIIKIRTGNLNEYSEQELLDCDRRSYGCNGGYPWSALQLVAQYGIHYRNTYPYEGVQRYCRSREKGPYAAKTDGVRQVQPYNEGALLYSIANQPVSVVLEAAGKDFQLYRGGIFVGPCGNKVDHAVAAVGYGPNYILIKNSWGTGWGENGYIRIKRGTGNSYGVCGLYTSSFYPVKN

Tests used:
[1] = tested on: PF-2; format: biochemical, Bacillus sp. KSM-PF2; details: for residual activity of PF-2 relative to control as 100: pH 7
[2] = tested on: PF-1; format: biochemical, Bacillus sp. KSM-PF1; details: for residual activity of PF-1 relative to control as 100: pH 7
[3] = Meat tenderization test, 15-mm thick round (Example 4, FIG. 2); details: 15-mm thick meat, 20° C., per 10 g: PF-1 100 U, papain 10 U or 1 U, elastase 250 U; for tenderizing effect (in words): PF-2 45 U
Protocol: The same meat as used in Example 3 was sliced perpendicular to muscular fibers to 15-mm thick pieces by a meat slicer. A maximum homogeneous portion of the sliced meat was molded into an about 30 g rod. The molded meat was uniformly sprinkled with the enzyme powder, covered with a wrap, and then allowed to stand at room temperature (20° C.) for a predetermined period of time. The meat thus processed was then grilled over a 200° C. hot plate for 3 minutes on each side. The meat thus grilled was cut into 2-cm wide strips which were then measured for shear force value in the same manner as in Example 3. As comparative enzymes, the same papain powder (available from Amano Co., Ltd.) and elastase powder (reagent available from Sigma Co., Ltd.) as used in Example 3 were subjected to the same meat tenderization test as mentioned above.

[4] = Meat tenderization test, 5-mm thick round (Example 3, FIG. 1); details: for tenderizing effect (in words) / time in which the tenderizing effect is exerted: 5-mm thick meat, 20° C., per 10 g: PF-1 100 U, papain 10 U or 1 U, elastase 250 U; for tenderizing effect (in words): PF-2 45 U; for time to overtenderizing effect: 5 mm or 15 mm
Protocol: The metalloprotease of the present invention preferably tenderizes round in such a manner that the shear force value of the round thus tenderized is from 20% to 70% (preferably from 25% to 65%, particularly from 30% to 50% of that of the untenderized round (round which has not been processed with the metalloprotease of the present invention) when the round has a thickness of 5 mm. The shear force value as defined herein is determined by subjecting the meat sample to cutting by a meat shear (Warner Bratzler Type 3000, available from Warner Bratzler Corp.). The meat sample is obtained by subjecting round to enzymatic processing at a temperature of 20° C., and then grilled-the round thus processed on both sides thereof at 200° C. (grilled on one side for 1 minute and one the other side for 45 seconds).
As the meat to be tested there was used a low grade round (100 g) imported from Australia. The meat was sliced to 5-mm thick pieces by a meat slicer. Prominent strings were removed. About 20 g of the sliced meat was then molded. The molded meat was uniformly sprinkled with the enzyme powder, covered with a wrap, and then allowed to stand at room temperature (20° C.) for a predetermined period of time. The meat thus processed was then grilled over a 200° C. hot plate for 1 minute on one side and for 45 seconds on the other side. The meat thus grilled was then cut into 3-cm wide strips. The strips were then measured for shear force value (SFV) by means of a meat shear (Warner Bratzler Type 3000, available from Warner Bratzler Corp.). As comparative enzymes, a papain powder (available from Amano Co., Ltd.) and an elastase powder (reagent available from Sigma Co., Ltd.) were subjected to the same meat tenderization test as mentioned above.

[5] = Meat tenderization test of conventional proteases (background); details: for time to overtenderize the meat: 0.1 based on the weight of the meat
Excerpt: As a meat tenderizer there has been heretofore used a protease. One of the most frequently used meat tenderizers is papain derived from papaya. However, papain is disadvantageous in that it is hard to control in tenderization (i.e., control over the progress of tenderization to a proper level) and its use is restricted by the added amount thereof and the processing time. In fact, papain was subjected to meat tenderization test. As a result, even when used in an amount as extremely small as 0.1 based on the weight of the meat to be tested, this enzyme overtenderized the meat within 1 hour at room temperature and in a period of time as short as 24 hours at a temperature as low as 4° C. The meat thus overtenderized was too unsavory to be served. This is because proteases derived from plants have a low substrate specificity.
On the other hand, a method has been proposed which comprises the specific decomposition of a connective tissue in a meat with elastase, which has a high substrate specificity, to tenderize the meat (JP-A-4-197156 (The term "JP-A" as used herein means an "unexamined published Japanese patent application"), JP-A-5-276899). However, this approach is disadvantageous in that elastase is hard to produce and must be used in a relatively large amount and requires a prolonged processing time to exert desired effects as compared with the foregoing proteases. It has also been point out that elastase cannot tenderize a meat sufficiently even if the added amount thereof and the processing time are increased (JP-A-6-169729).

| Molecule | inhibition of PF-2 activity (in words) [1] | residual activity of PF-2 relative to control as 100 [1] [%] | inhibition of PF-1 activity (in words) [2] | residual activity of PF-1 relative to control as 100 [2] [%] | also measured |
| --- | --- | --- | --- | --- | --- |
| O=C(O)CN(CCN(CC(=O)O)CC(=O)O)CC(=O)O [EDTA, ethylenediaminetetraacetic acid] | inhibited | 30 | inhibited | 45 |  |
| O[C@H](CS)[C@H](O)CS (racemic) [DTT, dithiothreitol] | not inhibited | 81 | not inhibited | 70 |  |
| leupeptine [Leupepsin] | not inhibited | 91 | not inhibited | 82 |  |
| O=S(=O)(F)Cc1ccccc1 [PNSF, phenylmethanesulfonylfluoride] | not inhibited | 80 | not inhibited | 124 |  |
| elastase |  |  |  |  | tenderizing effect (in words) ([3]; listed as elastase powder): some tenderizing effect; also recorded: a proper tenderness cannot be obtained; time in which the tenderizing effect is exerted [3]: 24 h; tenderizing effect (in words) ([4]; listed as elastase powder): some tenderizing effect; also recorded: a proper tenderness cannot be obtained; time in which the tenderizing effect is exerted [4]: 24 h; tenderizing effect, summary of Examples 3 and 4 (in words) ([4]; meat thickness either 5 mm or 15 mm, up to 24 hours): cannot exert an effect of properly tenderizing the meat; tenderizing effect (in words) ([5]; reagent grade elastase): slightly tenderized; also recorded: the tenderness thus obtained was insufficient |
| [Cl][Fe][Cl] [FeCl2] |  | 28 |  |  |  |
| [Ca+2].[Cl-].[Cl-] [CaCl2] |  | 76 |  | 104 |  |
| O=C(O)CI [Monoiodoacetic acid, monoiodoacetic acid] | not inhibited | 100 | not inhibited | 105 |  |
| [Cl][Ni][Cl] [NiCl2] |  | 28 |  | 92 |  |
| [Cl][Hg][Cl] [HgCl2] |  | 62 |  | 40 |  |
| [Cl-].[Cl-].[Mg+2] [MgCl2] |  | 74 |  | 107 |  |
| [Cl-].[Cl-].[Co+2] [CoCl2] |  | 78 |  | 103 |  |
| [Cl][Mn][Cl] [MnCl2] |  | 62 |  | 103 |  |
| [Cl][Cu][Cl] [CuCl2] |  | 20 |  | 37 |  |
| CC(C)CC(=O)N[C@H](C(=O)N[C@H](C(=O)N[C@@H](CC(C)C)[C@@H](O)CC(=O)N[C@@H](C)C(=O)N[C@@H](CC(C)C)[C@@H](O)CC(=O)O)C(C)C)C(C)C [Pepstatin, pepstatin] (Isovaleryl-VV[Sta]A[Sta]-OH) | not inhibited | 100 | not inhibited | 108 |  |
| [Cl][Fe]([Cl])[Cl] [FeCl3] |  | 9 |  | 98 |  |
| [Cl-].[Cl-].[Zn+2] [ZnCl2] |  | 58 |  | 88 |  |
| B1 |  |  |  |  | tenderizing effect (in words) [3]: overtenderizing effect; time in which the tenderizing effect is exerted [3]: several; tenderizing effect (in words) [4]: overtenderizing effect; time in which the tenderizing effect is exerted [4]: several; time to overtenderizing effect ([4]; used in a large amount): several minutes to scores of minutes; time to overtenderizing effect ([4]; used in a reduced amount): several hours; time to overtenderize the meat ([5]; 4° C.): 24 h; time to overtenderize the meat ([5]; room temperature): ≤ 1 h |
